According to article PMC7519584 (Clinical cancer research : an official journal of the …, 2015):

Experiments:
clinical = conditions: human, in vivo
[1] = ref NCT00610194; cited from earlier work
[2] = Plasma pharmacokinetics of refametinib, metabolite M17 and sorafenib; conditions: human, in vivo, Geometric mean maximum drug concentration (Cmax), multiple dose, day 1 of course 2, at the MTD, non-HCC patients
[3] = human, in vivo
HCC = conditions: sorafenib monotherapy, phase III trial in HCC (SHARP); cited from earlier work

Structure (SMILES) | half-life (clinical; Plasma half-life (geometric mean)) [h] | Tmax (clinical; po) [h] | MTD of refametinib monotherapy [1] [mg twice daily] | Cmax [2] [ng/mL] | Multiple-dose AUC0–12 higher than single-dose AUC0–12 by an average of [3] | Accumulation after multiple dosing ([3]; 28 days) | Patients with serious AEs considered possibly related to refametinib (human, in vivo) [patients] | Maximum tolerated dose (MTD) of refametinib (in combination with sorafenib 400 mg twice daily, 28-day courses) [mg twice daily] | Patients who achieved stable disease (HCC) [%] | Response rate (HCC) [%] | Sorafenib dose at the MTD of the combination (in combination with refametinib 50 mg twice daily, 28-day courses) [mg twice daily]
COc1cc(F)c(F)c(Nc2ccc(I)cc2F)c1NS(=O)(=O)C1(C[C@H](O)CO)CC1 [refametinib] | ~16 | ~3 | 50 | 674 | approximately 40% | less than 2 fold | 10 | 50 |  |  | 
CNC(=O)c1cc(Oc2ccc(NC(=O)Nc3ccc(Cl)c(C(F)(F)F)c3)cc2)ccn1 [sorafenib] |  |  |  |  |  |  |  |  | 71 | 2 | 400
